Measurements: patent publication US5264593A, “Cholesterol lowering compounds” (Merck & Co., Inc., priority 1993, dated 1993)

Target: T1, squalene synthetase (human HepG2 cell enzyme) (Homo sapiens, UniProt P37268)
T1 construct: SOURCE: HEPG2 CELL LINE (Liver, hepatoblastoma, Human) ATCC No. HB 8065; endogenous in cells; host or cells: HepG2 (ATCC HB 8065), sonicated cell extract
T1 sequence (P37268 1-417): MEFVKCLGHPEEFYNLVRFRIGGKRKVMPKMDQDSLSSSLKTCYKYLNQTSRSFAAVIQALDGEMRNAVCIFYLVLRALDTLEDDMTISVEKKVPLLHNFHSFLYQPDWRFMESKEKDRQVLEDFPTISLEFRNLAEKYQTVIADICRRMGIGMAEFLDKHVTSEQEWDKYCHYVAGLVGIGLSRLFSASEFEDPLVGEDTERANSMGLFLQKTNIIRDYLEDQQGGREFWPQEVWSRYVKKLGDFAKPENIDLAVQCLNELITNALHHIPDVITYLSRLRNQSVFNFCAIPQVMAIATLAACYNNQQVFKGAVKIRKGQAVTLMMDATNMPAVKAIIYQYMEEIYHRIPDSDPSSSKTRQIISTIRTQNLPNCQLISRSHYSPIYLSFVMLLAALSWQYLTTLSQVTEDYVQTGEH
Assay: Squalene Synthase Assay (human HepG2 cell enzyme, 3H-farnesyl pyrophosphate substrate)
Type: biochemical
Details: 3 μM 3H-farnesyl pyrophosphate, pH 7.5, 30° C., 20 minutes
Protocol: The intrinsic squalene synthetase inhibitory activity of the compounds of this invention was measured by the standard in vitro protocol described below:
PREPARATION OF HUMAN HepG2 cell ENZYME
1. SOURCE: HEPG2 CELL LINE (Liver, hepatoblastoma, Human) ATCC No. HB 8065
2. CELL GROWTH AND MAINTENANCE
Culture Medium: Minimum essential medium (MEM) with non-essential amino acids, sodium pyruvate, and 10% fetal bovine serum. The medium was changed twice weekly. […] The growth medium is prepared as listed below.
Subculture Procedure: Remove medium, wash with PBS, add fresh trypsin (0.25%)-EDTA (0.02%) with Hank's Balanced Salt solution and let flask stand for a minute and remove the trypsin solution. Incubate flask at 37° C. until cells detached. Add fresh medium, disperse and dispense cells into new flasks. Subcultivation ratio: 1:6.
PREPARATION of Delipidated Serum: Fetal calf serum (100 ml) and CAB-O-Sil (2 grams) stir overnight at 4° C. and centrifuge at 16,000 rpm for 5 hrs. […]
For each reaction, 55 μl of buffer mixture was taken with 5 μl of an inhibitor solution in DMSO and 10 μl of diluted enzyme (1 to 250 as described in the enzyme preparation, the final protein concentration of enzyme in the assay is 2 μg per ml.). […] 150 μl of heptane layer was then removed into a 96 deep well plate and mixed with 150 μl of scintillation fluid and the radioactivity was determined by liquid scintillation counting. […]

C=C(CCC12OCC(OC(C)=O)C(C(=O)O)(O1)C(OC(=O)/C=C/C(C)CC(C)CC)C2O)C(OC(C)=O)C(C)Cc1ccccc1 (stereo not drawn) [Example 1, 4-Acetate of 3,4-decarboxy-4-epi-Zaragozic Acid A]
IC50: 2.95 nM

C=C(CCC12OCC(OC(=O)C(C)(C)C)C(C(=O)O)(O1)C(OC(=O)/C=C/C(C)CC(C)CC)C2O)C(OC(C)=O)C(C)Cc1ccccc1 (stereo not drawn) [Example 2, 4-Trimethylacetate of 3,4-decarboxy-4-epi-Zaragozic Acid A]
IC50: 58.2 nM
